Reference: ChEMBL document CHEMBL1201862, “PubChem BioAssay data set” (2004)
Calls of active or inactive are those of the source.

Columns and labels:
[1] = biological target: Transitional endoplasmic reticulum ATPase (Homo sapiens, UniProt P55072, C522A); assay: Luminescence counterscreen assay for p97 inhibitors: dose response biochemical high throughput screening assay to identify inhibitors of the C522A mutant p97 ATPase: synthesized compounds. [Related pubchem assays: 1481, 1517, 1551 ]
[2] = biological target: Transitional endoplasmic reticulum ATPase (Homo sapiens, UniProt P55072); assay: Luminescence dose response biochemical high throughput screening assay for inhibitors of the p97 ATPase: synthesized compounds. [Related pubchem assays: 1481, 1517 ]
[3] = biological target: T1, RNA-binding protein pos-1 (Caenorhabditis elegans, UniProt G5EF15); assay: inhibitors of POS-1/mex-3 RNA binding, dose response, biochemical, fluorescence polarization (AID 1964);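 note: purified POS-1 fused to maltose binding protein made in E. coli; potency of compounds blocking POS-1 binding to fluorescent RNA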
T1 sequence (G5EF15 whole entry): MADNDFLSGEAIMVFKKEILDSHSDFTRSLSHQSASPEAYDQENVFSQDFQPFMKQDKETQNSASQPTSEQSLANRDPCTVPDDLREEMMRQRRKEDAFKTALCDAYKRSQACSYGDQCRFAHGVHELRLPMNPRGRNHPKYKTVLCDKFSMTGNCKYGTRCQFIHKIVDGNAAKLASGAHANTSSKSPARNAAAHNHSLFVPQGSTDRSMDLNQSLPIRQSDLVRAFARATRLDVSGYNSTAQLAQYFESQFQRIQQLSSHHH

[4] = biological target: T2, Zinc finger protein mex-5 (Caenorhabditis elegans, UniProt Q9XUB2); assay: MEX-5/TCR-2 RNA interaction inhibitors, dose response, biochemical, C. elegans, fluorescence polarization (AID 1960)
T2 sequence (Q9XUB2 whole entry): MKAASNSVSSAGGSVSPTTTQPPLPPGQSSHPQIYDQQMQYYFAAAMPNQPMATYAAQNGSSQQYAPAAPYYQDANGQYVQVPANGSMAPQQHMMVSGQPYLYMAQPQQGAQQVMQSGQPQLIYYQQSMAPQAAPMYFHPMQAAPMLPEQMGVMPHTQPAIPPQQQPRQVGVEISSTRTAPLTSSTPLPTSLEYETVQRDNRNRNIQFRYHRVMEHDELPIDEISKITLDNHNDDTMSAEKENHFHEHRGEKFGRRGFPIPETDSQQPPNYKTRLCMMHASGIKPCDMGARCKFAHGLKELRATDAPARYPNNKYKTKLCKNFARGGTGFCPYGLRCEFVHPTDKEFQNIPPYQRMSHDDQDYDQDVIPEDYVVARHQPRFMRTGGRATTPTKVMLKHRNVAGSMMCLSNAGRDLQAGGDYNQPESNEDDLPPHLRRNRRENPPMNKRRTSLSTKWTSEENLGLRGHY

[5] = cytotoxicity in HPDE-C7 cells, cell-based, fluorescence, HTS (AID 430); format: functional; conditions: Homo sapiens
Large T antigen = Large T antigen (Simian virus 40, UniProt P03070); format: functional, Betapolyomavirus macacae;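 note: Confirmatory-stage PubChem screen for compounds that inhibit SV40 T antigen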
Large T antigen, sequence (P03070 whole entry): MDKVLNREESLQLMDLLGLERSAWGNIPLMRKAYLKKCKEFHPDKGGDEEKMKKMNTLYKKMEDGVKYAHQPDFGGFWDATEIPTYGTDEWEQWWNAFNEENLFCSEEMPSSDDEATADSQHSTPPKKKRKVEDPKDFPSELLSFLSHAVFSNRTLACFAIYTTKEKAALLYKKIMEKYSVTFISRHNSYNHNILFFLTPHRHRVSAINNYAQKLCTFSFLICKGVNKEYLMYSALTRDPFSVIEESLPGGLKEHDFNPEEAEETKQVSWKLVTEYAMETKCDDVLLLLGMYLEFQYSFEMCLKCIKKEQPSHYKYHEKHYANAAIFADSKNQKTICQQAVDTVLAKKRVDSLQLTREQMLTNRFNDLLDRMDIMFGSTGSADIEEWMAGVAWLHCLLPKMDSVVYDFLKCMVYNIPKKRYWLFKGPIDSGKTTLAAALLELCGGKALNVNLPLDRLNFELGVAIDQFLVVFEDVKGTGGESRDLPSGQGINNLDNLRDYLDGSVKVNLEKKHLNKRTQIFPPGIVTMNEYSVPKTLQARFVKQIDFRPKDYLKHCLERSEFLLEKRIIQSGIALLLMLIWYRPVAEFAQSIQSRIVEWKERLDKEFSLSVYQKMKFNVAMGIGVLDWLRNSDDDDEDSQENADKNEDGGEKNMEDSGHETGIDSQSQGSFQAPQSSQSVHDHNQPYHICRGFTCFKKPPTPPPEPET

Estrogen receptor = biological target: T3, Estrogen receptor (Homo sapiens, UniProt P03372);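 note: potency for inhibiting coactivator peptide recruitment to the receptor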
T3 sequence (P03372 whole entry): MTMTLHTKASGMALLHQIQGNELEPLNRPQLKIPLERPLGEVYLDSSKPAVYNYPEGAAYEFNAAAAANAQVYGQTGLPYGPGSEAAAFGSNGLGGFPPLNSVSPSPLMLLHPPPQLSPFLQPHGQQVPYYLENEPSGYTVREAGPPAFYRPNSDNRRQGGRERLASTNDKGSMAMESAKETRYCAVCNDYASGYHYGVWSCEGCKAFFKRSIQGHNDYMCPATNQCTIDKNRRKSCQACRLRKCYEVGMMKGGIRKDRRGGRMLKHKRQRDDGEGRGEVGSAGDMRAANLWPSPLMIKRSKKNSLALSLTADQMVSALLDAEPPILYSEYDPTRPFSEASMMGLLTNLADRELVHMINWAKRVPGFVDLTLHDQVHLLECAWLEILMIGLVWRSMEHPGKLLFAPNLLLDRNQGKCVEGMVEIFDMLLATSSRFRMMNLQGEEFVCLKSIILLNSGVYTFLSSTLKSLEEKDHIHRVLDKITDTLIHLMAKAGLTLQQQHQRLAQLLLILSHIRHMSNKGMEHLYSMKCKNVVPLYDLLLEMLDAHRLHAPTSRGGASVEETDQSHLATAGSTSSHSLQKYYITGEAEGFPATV

[6] = cytotoxicity in KRAS-transformed pancreatic duct cells, primary screen, cell-based, fluorescence, HTS (AID 431); format: functional; conditions: Homo sapiens;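 note: cell line used: HPDE-C7K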
14-3-3 protein gamma = 14-3-3 protein gamma (Homo sapiens, UniProt P61981); assay: modulators of 14-3-3 gamma client binding – dose response (AID 711); format: functional
14-3-3 protein gamma, sequence (P61981 whole entry): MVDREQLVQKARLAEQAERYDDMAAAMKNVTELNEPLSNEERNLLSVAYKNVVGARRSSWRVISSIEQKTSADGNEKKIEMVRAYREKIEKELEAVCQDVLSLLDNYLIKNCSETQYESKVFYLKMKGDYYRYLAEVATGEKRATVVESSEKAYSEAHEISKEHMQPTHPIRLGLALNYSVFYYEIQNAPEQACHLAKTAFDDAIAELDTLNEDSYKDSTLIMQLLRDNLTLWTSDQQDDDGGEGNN

[7] = biological target: Glucose-6-phosphate 1-dehydrogenase (Homo sapiens, UniProt P11413); assay: human G6PD enzyme inhibitors, dose response, selectivity assay for P. falciparum G6PD inhibitor project, biochemical, fluorescence (AID 504792); format: functional
Glucose-6-phosphate 1-dehydrogenase, sequence (P11413 whole entry): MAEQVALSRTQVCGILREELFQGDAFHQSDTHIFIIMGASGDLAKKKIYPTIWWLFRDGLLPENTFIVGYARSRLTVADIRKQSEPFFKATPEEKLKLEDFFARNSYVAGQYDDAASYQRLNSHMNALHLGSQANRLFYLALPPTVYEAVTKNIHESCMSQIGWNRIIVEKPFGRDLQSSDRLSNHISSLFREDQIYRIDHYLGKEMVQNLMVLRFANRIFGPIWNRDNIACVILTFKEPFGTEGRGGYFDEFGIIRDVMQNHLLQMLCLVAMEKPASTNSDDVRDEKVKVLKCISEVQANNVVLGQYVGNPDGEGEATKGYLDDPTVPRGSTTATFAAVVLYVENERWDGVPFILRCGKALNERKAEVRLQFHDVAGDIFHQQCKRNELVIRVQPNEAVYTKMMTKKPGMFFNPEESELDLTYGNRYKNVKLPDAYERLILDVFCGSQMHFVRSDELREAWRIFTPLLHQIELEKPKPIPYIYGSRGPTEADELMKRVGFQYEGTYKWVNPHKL

[8] = biological target: T4, Heat shock factor protein 1 (Mus musculus, UniProt P38532); assay: HSF1 potentiators in luciferase reporter cells, confirmation, cell-based, NIH3T3, luminescence, dose retest (AID 435004); format: functional;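 note: stress induced by proteasome inhibitor MG132 added 30 min after compound; luciferase reporter driven by HSF1 response element in NIH3T3 cells; actives raise luminescence as potentiators of the MG132 stress response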
T4 sequence (P38532 whole entry): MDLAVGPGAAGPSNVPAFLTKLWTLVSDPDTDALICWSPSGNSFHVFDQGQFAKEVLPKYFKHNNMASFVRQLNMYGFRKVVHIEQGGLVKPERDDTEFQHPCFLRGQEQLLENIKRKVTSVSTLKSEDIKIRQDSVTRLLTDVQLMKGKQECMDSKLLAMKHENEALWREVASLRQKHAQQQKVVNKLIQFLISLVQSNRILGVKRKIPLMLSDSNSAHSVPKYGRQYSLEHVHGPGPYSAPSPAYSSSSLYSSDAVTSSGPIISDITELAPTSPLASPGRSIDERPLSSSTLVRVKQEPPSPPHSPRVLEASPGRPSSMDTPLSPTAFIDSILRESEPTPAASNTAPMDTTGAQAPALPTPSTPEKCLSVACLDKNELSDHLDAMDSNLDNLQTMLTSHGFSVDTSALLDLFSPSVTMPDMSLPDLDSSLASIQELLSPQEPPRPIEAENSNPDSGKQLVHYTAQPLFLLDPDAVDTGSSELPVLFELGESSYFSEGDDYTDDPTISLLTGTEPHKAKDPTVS

[9] = Luminescent dose response cell-based high throughput screening assay for inhibitors of the Janus kinase 2 mutant JAK2V617F. [Related pubchem assays: 1446 (Primary screen.), 1521 (Confirmation assay.), 1486 (Counter screen.)]; format: functional
[10] = biological target: Alkaline phosphatase, placental type (Homo sapiens, UniProt P05187); assay: PLAP enzyme inhibitors, confirmation, biochemical, luminescence (AID 1512); format: functional
Alkaline phosphatase, placental type, sequence (P05187 whole entry): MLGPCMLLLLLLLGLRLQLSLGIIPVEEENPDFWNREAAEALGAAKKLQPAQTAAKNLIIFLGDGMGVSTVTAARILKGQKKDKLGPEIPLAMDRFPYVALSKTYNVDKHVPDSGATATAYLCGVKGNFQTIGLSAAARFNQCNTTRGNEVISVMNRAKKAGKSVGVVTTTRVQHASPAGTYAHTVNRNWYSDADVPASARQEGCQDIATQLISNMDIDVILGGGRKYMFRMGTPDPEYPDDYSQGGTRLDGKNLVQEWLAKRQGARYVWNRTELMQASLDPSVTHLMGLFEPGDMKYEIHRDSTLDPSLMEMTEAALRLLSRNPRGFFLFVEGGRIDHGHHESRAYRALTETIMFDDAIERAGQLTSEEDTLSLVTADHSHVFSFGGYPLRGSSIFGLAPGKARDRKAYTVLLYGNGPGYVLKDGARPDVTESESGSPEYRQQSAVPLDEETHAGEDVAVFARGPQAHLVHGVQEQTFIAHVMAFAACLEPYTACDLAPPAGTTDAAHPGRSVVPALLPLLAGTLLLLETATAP

[11] = biological target: T5, Alkaline phosphatase, tissue-nonspecific isozyme (Homo sapiens, UniProt P05186); assay: human TNAP enzyme inhibitors, SAR follow-up, biochemical, luminescent, dose response (AID 1056)
T5 sequence (P05186 whole entry): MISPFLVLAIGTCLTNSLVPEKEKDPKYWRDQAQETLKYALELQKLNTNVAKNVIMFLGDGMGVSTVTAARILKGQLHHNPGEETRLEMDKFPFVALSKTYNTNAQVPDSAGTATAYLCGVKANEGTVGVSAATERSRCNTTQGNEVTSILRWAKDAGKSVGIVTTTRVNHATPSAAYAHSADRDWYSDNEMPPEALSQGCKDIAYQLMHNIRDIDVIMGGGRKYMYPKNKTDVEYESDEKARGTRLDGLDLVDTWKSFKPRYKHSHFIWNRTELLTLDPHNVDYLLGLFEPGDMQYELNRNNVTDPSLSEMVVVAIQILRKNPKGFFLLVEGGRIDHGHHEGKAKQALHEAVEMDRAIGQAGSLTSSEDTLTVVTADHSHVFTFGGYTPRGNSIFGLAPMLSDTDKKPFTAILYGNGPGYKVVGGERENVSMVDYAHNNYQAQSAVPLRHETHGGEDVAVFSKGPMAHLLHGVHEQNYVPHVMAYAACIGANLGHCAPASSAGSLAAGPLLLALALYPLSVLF

[12] = biological target: T6, Rac GTPase-activating protein 1 (Homo sapiens, UniProt Q9H0H5); assay: MgcRacGAP GTPase-activating activity inhibitors, confirmation, biochemical, ADP Hunter fluorescence, primary and confirmatory (AID 624330); format: functional
T6 sequence (Q9H0H5 whole entry): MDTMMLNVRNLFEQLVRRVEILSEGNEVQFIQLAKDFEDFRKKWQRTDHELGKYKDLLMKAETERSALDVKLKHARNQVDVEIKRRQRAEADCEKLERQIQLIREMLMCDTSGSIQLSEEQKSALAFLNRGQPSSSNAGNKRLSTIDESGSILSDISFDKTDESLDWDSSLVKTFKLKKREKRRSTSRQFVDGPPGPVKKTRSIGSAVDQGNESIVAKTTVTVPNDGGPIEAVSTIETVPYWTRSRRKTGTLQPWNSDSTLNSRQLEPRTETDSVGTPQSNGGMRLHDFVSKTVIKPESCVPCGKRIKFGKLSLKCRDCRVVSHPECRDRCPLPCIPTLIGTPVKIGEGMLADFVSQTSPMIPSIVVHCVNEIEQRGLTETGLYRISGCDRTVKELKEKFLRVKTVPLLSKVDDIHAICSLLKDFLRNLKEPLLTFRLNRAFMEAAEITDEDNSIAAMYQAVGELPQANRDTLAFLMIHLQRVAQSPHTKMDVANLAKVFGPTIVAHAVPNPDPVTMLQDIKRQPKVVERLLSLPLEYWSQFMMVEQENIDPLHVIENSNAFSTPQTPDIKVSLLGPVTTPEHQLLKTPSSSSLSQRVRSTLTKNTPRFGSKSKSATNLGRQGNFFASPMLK

Vero = assay: host cell cytotoxicity of antiviral hits, dose response, cytotoxicity control for West Nile virus antiviral project, secondary assay (AID 1650); format: functional; conditions: Chlorocebus sabaeus
[13] = inhibitors of intracellular T. cruzi replication, confirmation, NIH3T3 host cells, beta-gal luminescence (AID 2044); format: functional, cell-based;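 note: intracellular parasites grown in NIH/3T3 mouse fibroblasts as host cells; luminescent beta-galactosidase reporter signal from transgenic T. cruzi replicating inside host cells; inhibitors lower the luminescence signal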
[14] = cytotoxicity toward NIH3T3 fibroblasts, dose response, counter-screen, cell-based, ATP luminescence, mouse fibroblasts (AID 2010); format: functional;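 note: cells exposed to compound for about 90 hours before reading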
[15] = biological target: G-protein coupled receptor 55 (Homo sapiens, UniProt Q9Y2T6); assay: GPR55 agonists via beta-arrestin recruitment, primary screen, imaging, U2OS cells, beta-arrestin-GFP redistribution (AID 1961); format: functional
G-protein coupled receptor 55, sequence (Q9Y2T6 whole entry): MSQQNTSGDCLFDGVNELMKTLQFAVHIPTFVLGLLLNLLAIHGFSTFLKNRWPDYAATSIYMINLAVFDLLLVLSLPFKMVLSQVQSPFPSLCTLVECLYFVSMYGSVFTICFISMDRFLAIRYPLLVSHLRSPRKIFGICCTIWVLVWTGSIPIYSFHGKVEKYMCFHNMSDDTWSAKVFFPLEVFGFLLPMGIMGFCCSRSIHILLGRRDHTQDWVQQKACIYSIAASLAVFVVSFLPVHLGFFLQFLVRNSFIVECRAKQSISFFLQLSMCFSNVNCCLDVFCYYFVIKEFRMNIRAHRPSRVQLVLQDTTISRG

[16] = biological target: Heat shock protein HSP 90-alpha (Homo sapiens, UniProt P07900); format: functional, organism-based
[17] = biological target: Peroxisome proliferator-activated receptor gamma/Nuclear receptor corepressor 2 (Homo sapiens, UniProt P37231+Q9Y618); assay: Counterscreen for NR2E3 inverse agonists: TR-FRET-based biochemical high throughput dose response assay to identify inverse agonists of the interaction between peroxisome proliferator-activated receptor gamma (PPARg) and nuclear receptor co-repressor 2 (NCOR2).; format: functional
[18] = biological target: Photoreceptor-specific nuclear receptor (Homo sapiens, UniProt Q9Y5X4); assay: NR2E3 inverse agonists, dose response, biochemical, TR-FRET (AID 463256); format: functional
Photoreceptor-specific nuclear receptor, sequence (Q9Y5X4 whole entry): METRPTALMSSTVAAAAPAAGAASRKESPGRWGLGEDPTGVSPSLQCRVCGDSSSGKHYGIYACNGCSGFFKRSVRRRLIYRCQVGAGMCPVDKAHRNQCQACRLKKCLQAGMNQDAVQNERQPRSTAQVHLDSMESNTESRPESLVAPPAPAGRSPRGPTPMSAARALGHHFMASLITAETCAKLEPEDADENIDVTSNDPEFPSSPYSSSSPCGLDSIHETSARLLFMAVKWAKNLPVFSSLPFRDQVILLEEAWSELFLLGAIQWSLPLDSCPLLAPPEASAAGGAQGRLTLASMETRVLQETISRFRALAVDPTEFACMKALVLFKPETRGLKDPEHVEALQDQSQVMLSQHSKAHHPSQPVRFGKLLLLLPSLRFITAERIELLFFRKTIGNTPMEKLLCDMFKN

Cytochrome P450 2C19 [19] = biological target: T7, Cytochrome P450 2C19 (Homo sapiens, UniProt P33261); assay: Cytochrome panel assay with activity outcomes. Panel member name: p450-cyp2c19 Compounds with AC50 equal or less than 10 uM are considered active; format: functional
T7 sequence (P33261 whole entry): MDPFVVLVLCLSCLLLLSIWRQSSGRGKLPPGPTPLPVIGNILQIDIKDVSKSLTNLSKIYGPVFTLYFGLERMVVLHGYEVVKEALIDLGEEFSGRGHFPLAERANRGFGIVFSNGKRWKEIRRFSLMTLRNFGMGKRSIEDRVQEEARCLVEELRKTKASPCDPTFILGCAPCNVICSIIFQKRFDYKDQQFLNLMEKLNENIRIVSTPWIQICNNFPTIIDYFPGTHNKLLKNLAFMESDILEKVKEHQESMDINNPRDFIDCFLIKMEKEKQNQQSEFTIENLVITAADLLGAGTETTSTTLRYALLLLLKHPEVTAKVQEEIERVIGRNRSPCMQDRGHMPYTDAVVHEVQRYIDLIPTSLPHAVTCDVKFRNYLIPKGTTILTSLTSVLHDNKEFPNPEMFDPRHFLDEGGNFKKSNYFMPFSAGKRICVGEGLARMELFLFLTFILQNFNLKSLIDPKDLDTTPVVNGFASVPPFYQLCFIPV

[20] = biological target: ADP-ribosylation factor GTPase-activating protein 1 (Rattus norvegicus, UniProt Q62848); assay: Fluorescence polarization-based biochemical high throughput dose response screening assay to identify inhibitors of ADP-ribosylation factor GTPase activating protein 1 (ARFGAP1).; format: functional
ADP-ribosylation factor GTPase-activating protein 1, sequence (Q62848 whole entry): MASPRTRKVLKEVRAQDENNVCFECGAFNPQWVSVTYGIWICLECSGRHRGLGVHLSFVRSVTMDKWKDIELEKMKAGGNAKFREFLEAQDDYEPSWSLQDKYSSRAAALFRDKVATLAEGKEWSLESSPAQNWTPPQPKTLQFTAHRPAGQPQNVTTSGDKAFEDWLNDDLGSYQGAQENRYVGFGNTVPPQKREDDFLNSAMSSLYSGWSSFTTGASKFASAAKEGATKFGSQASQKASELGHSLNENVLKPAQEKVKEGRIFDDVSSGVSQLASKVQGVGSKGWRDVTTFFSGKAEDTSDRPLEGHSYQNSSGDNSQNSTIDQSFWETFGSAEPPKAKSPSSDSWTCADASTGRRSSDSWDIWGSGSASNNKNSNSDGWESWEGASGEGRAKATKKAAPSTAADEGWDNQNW

Cytochrome P450 2C9 = Cytochrome P450 2C9 (Homo sapiens, UniProt P11712)
Cytochrome P450 2C9, sequence (P11712 whole entry): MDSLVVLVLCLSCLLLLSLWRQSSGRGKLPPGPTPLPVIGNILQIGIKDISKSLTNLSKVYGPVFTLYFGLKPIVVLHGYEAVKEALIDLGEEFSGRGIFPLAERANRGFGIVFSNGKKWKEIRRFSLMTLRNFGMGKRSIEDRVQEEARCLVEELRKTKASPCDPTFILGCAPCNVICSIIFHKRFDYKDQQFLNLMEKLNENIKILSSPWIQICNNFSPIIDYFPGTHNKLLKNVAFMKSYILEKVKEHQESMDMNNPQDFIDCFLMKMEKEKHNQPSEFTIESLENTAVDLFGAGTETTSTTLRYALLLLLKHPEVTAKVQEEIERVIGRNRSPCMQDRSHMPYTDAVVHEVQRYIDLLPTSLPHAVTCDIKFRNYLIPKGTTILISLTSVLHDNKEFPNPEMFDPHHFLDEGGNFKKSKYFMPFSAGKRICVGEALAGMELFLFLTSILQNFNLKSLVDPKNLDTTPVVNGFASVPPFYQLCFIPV

Cytochrome P450 2C19 [21] = biological target: T7, Cytochrome P450 2C19; assay: qHTS Assay for Inhibitors and Substrates of Cytochrome P450 2C19. [Related pubchem assays: 410 ]; format: ADME; conditions: read-out: Potency

Transitional endoplasmic reticulum ATPase (Homo sapiens, UniProt P55072, C522A), sequence (P55072 2-806 C522A limits assumed): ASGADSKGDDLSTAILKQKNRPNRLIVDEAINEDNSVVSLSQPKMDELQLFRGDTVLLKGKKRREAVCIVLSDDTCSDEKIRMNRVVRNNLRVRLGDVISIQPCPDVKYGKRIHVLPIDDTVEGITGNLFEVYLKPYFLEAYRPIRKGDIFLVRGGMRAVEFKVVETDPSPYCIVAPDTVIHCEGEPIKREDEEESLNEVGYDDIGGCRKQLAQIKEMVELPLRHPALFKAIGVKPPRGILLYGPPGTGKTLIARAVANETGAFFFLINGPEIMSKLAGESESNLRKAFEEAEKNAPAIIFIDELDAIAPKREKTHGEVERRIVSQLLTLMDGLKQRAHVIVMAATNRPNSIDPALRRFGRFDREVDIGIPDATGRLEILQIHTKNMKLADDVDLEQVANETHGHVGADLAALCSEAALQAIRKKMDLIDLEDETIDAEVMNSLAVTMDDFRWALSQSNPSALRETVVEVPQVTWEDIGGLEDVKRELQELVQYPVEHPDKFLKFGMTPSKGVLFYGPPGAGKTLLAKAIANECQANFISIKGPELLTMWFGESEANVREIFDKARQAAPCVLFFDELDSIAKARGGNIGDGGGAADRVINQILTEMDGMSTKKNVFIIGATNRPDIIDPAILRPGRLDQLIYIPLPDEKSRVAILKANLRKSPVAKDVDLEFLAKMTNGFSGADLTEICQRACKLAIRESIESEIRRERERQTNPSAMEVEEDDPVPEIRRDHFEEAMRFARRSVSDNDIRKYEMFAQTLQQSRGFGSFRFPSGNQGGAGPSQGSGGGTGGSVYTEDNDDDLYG

With `Cc1cc(-c2csc(Nc3ccc(C#N)cc3)n2)c(C)n1C` the IC50 [1] was > 50 µM (not active) and the IC50 [2] was > 50 µM (not active).
In the case of `CC(Cc1ccc(O)c(O)c1)C(C)Cc1ccc(O)c(O)c1` (stereo unspecified) [NORDIHYDROGUAIARETIC ACID], the EC50 [3] is reported as 26.1 µM (active), the EC50 [4] is reported as 8.75 µM (active) and the EC50 [5] is reported as 9.48 µM (active). For the same compound, the IC50 (Large T antigen) was 21.9 µM (active), the IC50 (Estrogen receptor) was 22.2 µM (active) and the EC50 [6] was 11.2 µM (active). For the same compound, the IC50 (14-3-3 protein gamma) was > 50 µM (not active), the IC50 [7] was > 80 µM (inactive) and the EC50 [8] was 2.32 µM (active).
With `O=C(CSc1nnnn1-c1ccc(F)cc1)c1ccc(O)c(O)c1` the IC50 [9] was 2.16 µM (active), the IC50 [10] was 1.89 µM (active) and the IC50 [11] was 5.98 µM (active). The IC50 [12] was 80.6 µM (active).
In the case of `CC(=O)Nc1ccc(Nc2cc(C(C)C)nc3c(-c4ccccc4)c(C)nn23)cc1`, the CC50 (Vero) is reported as > 100 µM (active), the EC50 [13] is reported as 0.211 µM (active) and the EC50 [14] is reported as 10.4 µM (active). For the same compound, the EC50 [15] was > 32 µM (inactive) and the AC50 [16] was 3.84 µM (active).
For `O=C(Nc1ccc(-c2cc3ccccc3oc2=O)c(Cl)c1)c1cccnc1`, the IC50 [17] was > 39.8 µM (not active), the IC50 [18] was > 39.8 µM (not active) and the AC50 (Cytochrome P450 2C19 [19]) was “inconclusive”. The IC50 [20] was 17.9 µM (inactive) and the AC50 (Cytochrome P450 2C9) was “inconclusive”.
In the case of `CC(=O)c1ccc(C2C=CC(Oc3ccc(-c4ccccc4)cc3)C(CO)O2)cc1` (stereo unspecified), the AC50 (Cytochrome P450 2C19 [21]) is reported as 0.794 µM (inconclusive).
